What was measured:
pigs = test: Pig growth trial, 9 weeks (Example 11); type: in vivo
Source text: Seventy-two pigs weighing approximately 20kg. each were allocated into 8 matched treatment groups of 9 pigs, on the basis of sex and live weight. Each treatment group was allocated to one particular diet, and each animal in each group was fed individually on its appropriate diet, accurately weighed according to a feeding scale based on live weight, and adjusted weekly. The daily live weight gain in gammes (DLWG) and food conversion ratio (FCR -- the ratio of kg. feed per kg. of live weight gain) were determined for each group at the end of a 9 week trial period.

chickens [1] = test: Chicken growth trial, 1-day old chickens, 6 days (Example 4); type: in vivo; details: for Mean final weight per bird: * significant at p<0.001
Source text: (§1) Groups of 20 randomised 1-day old chickens were place in small floor pens, bedded with wood shavings and provided with automatic drinking fountains. The birds in 16 randomly chosen such pens were fed for 6 days on a nutritionally balanced control diet containing no known growth promoter, and the birds in other pens (four pens per treatment diet) were fed for the same period on the same basal diet to which the indicated weight of mixed mithramycins obtained as in Example 2 or 3, or a known chicken growth promoter, penicillin or nitrovin as a positive control, was added. At the end of the test period, the mean weight per bird in the control group and each test group was determined and the percentage weight increase for each test group as compared with the control group was calculated.

chickens [2] = test: Chicken growth trial, pen of 20 birds (Example 5); type: in vivo; details: for Mean final weight-20 birds: mean total weight of a pen of 20 birds
Source text: as §1, with “calculated. The following results were obtained:” for “calculated.”
In a further growth trial, the procedure described in Example 4 was repeated. In this case, the weights are expressed as the mean total weight of a pen of 20 birds.

chickens [3] = test: Chicken growth trial, mixed mithramycins from Streptomyces argillaceus (Example 7); type: in vivo
Source text: as §1, with “calculated. The following results were obtained:” for “calculated.”
The procedure described in Example 4 was repeated, using the mixed mithramycins obtained by culturing Streptomyces argillaceus A.T.C.C. 12956 in known manner, and the following results were obtained: […]

chickens [4] = test: Chicken growth trial, magnesium chelate of Example 2 (Example 8); type: in vivo; details: * P<0.001
Experimental: Groups of 20 randomised 1-day old chickens were place in small floor pens, bedded with wood shavings and provided with automatic drinking fountains. […] At the end of the test period, the mean weight per bird in the control group and each test group was determined and the percentage weight increase for each test group as compared with the control group was calculated.

chickens [5] = test: Chicken growth trial, magnesium chelate of mithramycin A from S. argillaceus (Example 9); type: in vivo; details: * P<0.001
Source text: The procedure described in Example 4 was repeated, using the magnesium chelate of mithramycin A, obtained in known manner from fermentation of S. argillaceus A.T.C.C.

chickens [6] = test: Chicken growth trial, chromomycin A3 (Example 12); type: in vivo
Source text: as §1, with “calculated. The following results were obtained:” for “calculated.”
The procedure described in Example 4 was repeated, using chromomycin A3, obtained from Takeda Chemical Industries Ltd., Osaka, Japan, instead of the mixed mithramycins.

discard cockerels = test: Growth trial in discard cockerels, 4 weeks (Example 10); type: in vivo, chicken; details: 10 ppm in basal diet
Source text: as §1, with “calculated. The following results were obtained:” for “calculated.”
The procedure described in Example 4 was repeated using 4 pens each of 30 discard cockerels for each diet, and allowing the trial to run for 4 weeks.

[7] = 10 ppm in basal diet, nitrovin * p<0.001, chromomycin A3 *** p<0.05

SMILES: COC(=O)N/N=C/c1c[n+]([O-])c2ccccc2[n+]1[O-] [carbadox]
- FCR (food conversion ratio) (pigs; high copper diet, 20 ppm, * significant at p<0.05): 2.184 kg. feed per kg. of live weigh
- DLWG (daily live weight gain) (pigs; high copper diet, 20 ppm, ** significant at p<0.01): 672.7 gammes
- FCR (food conversion ratio) (pigs; low copper diet, 20 ppm): 2.292 kg. feed per kg. of live weigh
- DLWG (daily live weight gain) (pigs; low copper diet, 20 ppm, * significant at p<0.05): 630.6 gammes

SMILES: CC1(C)S[C@@H]2[C@H](NC(=O)Cc3ccccc3)C(=O)N2[C@H]1C(=O)O [penicillin]
- % effect v. control (weight increase) (chickens [1]; 25 ppm in basal diet): 11.6%
- Mean final weight per bird (chickens [1]; 25 ppm in basal diet): 42.57 g
- % effect v. control (chickens [2]; 25 ppm in basal diet): 18.25%
- Mean final weight-20 birds (chickens [2]; 25 ppm in basal diet): 876 g
- % effect v. control (chickens [3]; 25 ppm in basal diet): 18.8%
- Mean final weight per birds (chickens [3]; 25 ppm in basal diet): 47.6 g
- % effect v. control (chickens [4]; 25 ppm in basal diet): 16.1%
- Mean final weight per bird (chickens [4]; 25 ppm in basal diet): 47.95 g
- % effect v. control (chickens [5]; 25 ppm in basal diet): 16.1%
- Mean final weight per bird (chickens [5]; 25 ppm in basal diet): 47.95 g
- % effect v. control (chickens [6]; 25 ppm in basal diet): 12.7%
- Mean final weight per bird (chickens [6]; 25 ppm in basal diet, * significant at p<0.001): 46.73 g

SMILES: N=C(N)NN=C(/C=C/c1ccc([N+](=O)[O-])o1)/C=C/c1ccc([N+](=O)[O-])o1 [nitrovin]
- % effect v. control (weight increase) (chickens [1]; 10 ppm in basal diet): 12.7%
- Mean final weight per bird (chickens [1]; 10 ppm in basal diet): 42.99 g
- % effect v. control (chickens [2]; 10 ppm in basal diet): 11.6%
- Mean final weight-20 birds (chickens [2]; 10 ppm in basal diet): 826 g
- % effect v. control (chickens [3]; 10 ppm in basal diet): 12.9%
- Mean final weight per birds (chickens [3]; 10 ppm in basal diet): 45.2 g
- % effect v. control (chickens [4]; 10 ppm in basal diet): 10.6%
- Mean final weight per bird (chickens [4]; 10 ppm in basal diet): 45.67 g
- % effect v. control (chickens [5]; 10 ppm in basal diet): 10.6%
- Mean final weight per bird (chickens [5]; 10 ppm in basal diet): 45.67 g
- Food conversion ratio (discard cockerels; ** significant at p<0.001): 1.800
- Mean final weight per bird (discard cockerels; mixed mithramycins * significant at p<0.01, nitrovin unmarked): 339 g
- DLWG (daily live weight gain) (pigs; high copper diet, 10 ppm): 579.2 gammes
- FCR (food conversion ratio) (pigs; high copper diet, 10 ppm): 2.308 kg. feed per kg. of live weigh
- DLWG (daily live weight gain) (pigs; low copper diet, 10 ppm): 567.0 gammes
- FCR (food conversion ratio) (pigs; low copper diet, 10 ppm): 2.381 kg. feed per kg. of live weigh
- % effect v. control (chickens [6]; 10 ppm in basal diet): 9.7%
- Mean final weight per bird (chickens [6]; [7]): 45.46 g

SMILES: CO[C@@H]1[C@H](O)C[C@@H](O[C@@H]2C[C@H](Oc3cc4cc5c(c(O)c4c(O)c3C)C(=O)[C@@H](O[C@H]3C[C@@H](O[C@H]4C[C@@H](O[C@H]6C[C@](C)(O)[C@@H](OC(C)=O)[C@H](C)O6)[C@H](O)[C@@H](C)O4)[C@H](O)[C@@H](C)O3)[C@H]([C@H](OC)C(=O)[C@@H](O)[C@@H](C)O)C5)O[C@H](C)[C@@H]2OC(C)=O)O[C@@H]1C [chromomycin A3]
- % effect v. control (chickens [6]; 5 ppm in basal diet): 7.3%
- Mean final weight per bird (chickens [6]; 5 ppm in basal diet, ** significant at p<0.01): 44.51 g
- % effect v. control (chickens [6]; 10 ppm in basal diet): 5.4%
- Mean final weight per bird (chickens [6]; [7]): 43.68 g

From patent publication US4141974A, “Veterinary method employing certain aureolic acid compounds” (Imperial Chemical Industries Limited, priority 1976, dated 1979)
